Patent US8912121B2, “Herbicidal compositions comprising 4-amino-3-chloro-5-fluoro-6-(4-chloro-2-fluoro-3-methoxyphenyl)pyridine-2-carboxylic acid or a derivative thereof and certain PS II inhibitors” (Dow Agrosciences LLC, priority 2012, dated 2014)
Values joined by “and” are separate entries in the source; they are usually repeats but may differ in a detail not shown here. Equal values may be shown once.

Columns and labels:
Assay in all cases: Postemergence foliar-applied mixtures, direct seeded rice, greenhouse
[1] = tested on: ECHCO (Echinochloa colona, junglerice); format: in vivo, Echinochloa colona (L.) Link
From the text: (§1) Seeds or nutlets of the desired test plant species were planted in a soil matrix prepared by mixing a loam or sandy loam soil (e.g., 28.6 percent silt, 18.8 percent clay, and 52.6 percent sand, with a pH of about 5.8 and an organic matter content of about 1.8 percent) and calcareous grit in an 80 to 20 ratio. The soil matrix was contained in plastic pots with a volume of 1 quart and a surface area of 83.6 square centimeters (cm^2). When required to ensure good germination and healthy plants, a fungicide treatment and/or other chemical or physical treatment was applied. The plants were grown for 8-22 days in a greenhouse with an approximate 14 h photoperiod which was maintained at about 29° C. during the day and 26° C. during the night. Nutrients (Peters Excel® 15-5-15 5-Ca 2-Mg and iron chelate) were applied in the irrigation solution as needed and water was added on a regular basis. Supplemental lighting was provided with overhead metal halide 1000-Watt lamps as necessary. The plants were employed for testing when they reached the first through fourth true leaf stage.
(§2) Treatments consisted of the acid or esters of 4-amino-3-chloro-5-fluoro-6-(4-chloro-2-fluoro-3-methoxy-phenyl) pyridine-2-carboxylic acid (Compound A), each formulated as an SC (suspension concentrate), and various herbicidal components alone and in combination. Forms of compound A were applied on an acid equivalent basis.
(§3) Other herbicidal components were applied on an active ingredient basis and included Photosystem II (PSII)-inhibiting herbicides propanil formulated as Stam® M4 EC, bentazon-sodium formulated as Basagran®, atrazine formulated as Atrazine 90 WDG, bromoxynil octanoate ester formulated as Buctril®, simetryne (technical grade material), simazine formulated as Princep® Caliber 90, ioxynil (technical grade material), cyanazine (technical grade material), and hexazinone (technical grade material).
(§4) Treatment requirements were calculated based upon the rates being tested, the concentration of active ingredient or acid equivalent in the formulation, and a 12 mL application volume at a rate of 187 L/ha.
(§5) For treatments comprised of formulated compounds, measured amounts of compounds were placed individually in 25 mL glass vials and diluted in a volume of 1.25% (v/v) Agri-Dex® crop oil concentrated to obtain 12× stock solutions. […] Application solutions were prepared by adding an appropriate amount of each stock solution (e.g., 1 mL) and diluted to the appropriate final concentrations with the addition of 10 mL of an aqueous mixture of 1.25% (v/v) crop oil concentrate so that the final spray solutions contained 1.25+/−0.05% (v/v) crop oil concentrate.
(§6) For treatments comprised of technical compounds, weighed amounts can be placed individually in 25 mL glass vials and dissolved in a volume of 97:3 v/v acetone/DMSO to obtain 12× stock solutions. […] Application solutions can be prepared by adding an appropriate amount of each stock solution (e.g., 1 mL) and diluted to the appropriate final concentrations with the addition of 10 mL of an aqueous mixture of 1.5% (v/v) crop oil concentrate so that the final spray solutions contain 1.25% (v/v) crop oil concentrate. When technical materials are used, the concentrated stock solutions can be added to the spray solutions so that the final acetone and DMSO concentrations of the application solutions are 16.2% and 0.5%, respectively.
(§7) For treatments comprised of formulated and technical compounds, weighed amounts of the technical materials were placed individually in 25 mL glass vials and dissolved in a volume of 97:3 v/v acetone/DMSO to obtain 12× stock solutions, and measured amounts of the formulated compounds were placed individually in 25 mL glass vials and diluted in a volume of 1.5% (v/v) crop oil concentrate or water to obtain 12× stock solutions. […]

[2] = tested on: ECHCG (Echinochloa crusgalli, barnyardgrass); format: in vivo, Echinochloa crusgalli (L.) Beauv.
Experimental: as §1, with “When required to ensure good germination and healthy plants, a fungicide treatment and/or other chemical or physical treatment was applied.” left out
as §2, §3, §5, §6
For treatments comprised of formulated and technical compounds, weighed amounts of the technical materials were placed individually in 25 mL glass vials and dissolved in a volume of 97:3 v/v acetone/DMSO to obtain 12× stock solutions, and measured amounts of the formulated compounds were placed individually in 25 mL glass vials and diluted in a volume of 1.5% (v/v) crop oil concentrate or water to obtain 12× stock solutions. […] Application solutions were prepared by adding an appropriate amount of each stock solution (eg, 1 mL) and diluted to the appropriate final concentrations with the addition of an appropriate amount of an aqueous mixture of 1.5% (v/v) crop oil concentrate so that the final spray solutions contained 1.25% (v/v) crop oil concentrate.

[3] = tested on: CYPIR (Cyperus iria, rice flatsedge); format: in vivo, Cyperus iria L.
From the text: as §1, §2, §3, §4, §5, §6, §7

CCNc1nc(Cl)nc(NCC)n1 [Simazine, 6-chloro-N,N′-diethyl-1,3,5-triazine-2,4-diamine, reference compound]
Visual Weed Control (%) Obs ([1]; 560 g ai/ha, 20 DAA): 0%
Visual Weed Control (%) Obs ([1]; 1120 g ai/ha, 20 DAA): 0%
Visual Weed Control (%) Obs ([1]; 2240 g ai/ha, 20 DAA): 0%
Visual Weed Control (%) Obs ([2]; 560 g ai/ha, 20 DAA): 0%
Visual Weed Control (%) Obs ([2]; 1120 g ai/ha, 20 DAA): 0%
Visual Weed Control (%) Obs ([2]; 2240 g ai/ha, 20 DAA): 0%
Visual Weed Control (%) Obs ([3]; 560 g ai/ha, 20 DAA): 0%
Visual Weed Control (%) Obs ([3]; 1120 g ai/ha, 20 DAA): 0%
Visual Weed Control (%) Obs ([3]; 2240 g ai/ha, 20 DAA): 30%

CCNc1nc(Cl)nc(NC(C)C)n1 [Atrazine, 6-chloro-N-ethyl-N′-(1-methylethyl)-1,3,5-triazine-2,4-diamine, reference compound]
Visual Weed Control (%) Obs ([1]; 280 g ai/ha, 22 DAA): 10%
Visual Weed Control (%) Obs ([1]; 560 g ai/ha, 22 DAA): 10%
Visual Weed Control (%) Obs ([1]; 1120 g ai/ha, 22 DAA): 60%
Visual Weed Control (%) Obs ([2]; 280 g ai/ha, 22 DAA): 0%
Visual Weed Control (%) Obs ([2]; 560 g ai/ha, 22 DAA): 20%
Visual Weed Control (%) Obs ([2]; 1120 g ai/ha, 22 DAA): 70%
Visual Weed Control (%) Obs ([3]; 280 g ai/ha, 22 DAA): 0%
Visual Weed Control (%) Obs ([3]; 560 g ai/ha, 22 DAA): 100%
Visual Weed Control (%) Obs ([3]; 1120 g ai/ha, 22 DAA): 80%

CCC(=O)Nc1ccc(Cl)c(Cl)c1 [Propanil, N-(3,4-dichlorophenyl)propanamide, reference compound]
Visual Weed Control (%) Obs ([1]; 420 g ai/ha, 21 DAA): 10%
Visual Weed Control (%) Obs ([1]; 840 g ai/ha, 21 DAA): 25%
Visual Weed Control (%) Obs ([1]; 1680 g ai/ha, 21 DAA): 25%
Visual Weed Control (%) Obs ([2]; 420 g ai/ha, 21 DAA): 10%
Visual Weed Control (%) Obs ([2]; 840 g ai/ha, 21 DAA): 10%
Visual Weed Control (%) Obs ([2]; 1680 g ai/ha, 21 DAA): 40%

COc1c(Cl)ccc(-c2nc(C(=O)OCc3ccccc3)c(Cl)c(N)c2F)c1F [Compound A Benzyl Ester, benzyl ester of 4-amino-3-chloro-5-fluoro-6-(4-chloro-2-fluoro-3-methoxy-phenyl)pyridine-2-carboxylic acid]
Visual Weed Control (%) Obs ([1]; 4.38 g ae/ha, 21 DAA): 60%
Visual Weed Control (%) Obs ([1]; 8 g ae/ha, 20 DAA): 65%
Visual Weed Control (%) Obs ([1]; 8 g ae/ha, 21 DAA): 75% and 50%
Visual Weed Control (%) Obs ([1]; 8.75 g ae/ha, 21 DAA): 68%
Visual Weed Control (%) Obs ([1]; 16 g ae/ha, 20 DAA): 85%
Visual Weed Control (%) Obs ([1]; 16 g ae/ha, 21 DAA): 85% and 65%
Visual Weed Control (%) Obs ([1]; 17.5 g ae/ha, 21 DAA): 83%
Visual Weed Control (%) Obs ([1]; 32 g ae/ha, 20 DAA): 95%
Visual Weed Control (%) Obs ([1]; 32 g ae/ha, 21 DAA): 95% and 85%
Visual Weed Control (%) Obs ([2]; 4.38 g ae/ha, 21 DAA): 48%
Visual Weed Control (%) Obs ([2]; 8 g ae/ha, 20 DAA): 70%
Visual Weed Control (%) Obs ([2]; 8 g ae/ha, 21 DAA): 45%
Visual Weed Control (%) Obs ([2]; 8 g ae/ha, 22 DAA): 35%
Visual Weed Control (%) Obs ([2]; 8.75 g ae/ha, 21 DAA): 55%
Visual Weed Control (%) Obs ([2]; 16 g ae/ha, 20 DAA): 90%
Visual Weed Control (%) Obs ([2]; 16 g ae/ha, 21 DAA): 85%
Visual Weed Control (%) Obs ([2]; 16 g ae/ha, 22 DAA): 65%
Visual Weed Control (%) Obs ([2]; 17.5 g ae/ha, 21 DAA): 85%
Visual Weed Control (%) Obs ([2]; 32 g ae/ha, 20 DAA): 90%
Visual Weed Control (%) Obs ([2]; 32 g ae/ha, 21 DAA): 90%
Visual Weed Control (%) Obs ([2]; 32 g ae/ha, 22 DAA): 80%
Visual Weed Control (%) Obs ([3]; 8 g ae/ha, 20 DAA): 70%
Visual Weed Control (%) Obs ([3]; 8 g ae/ha, 22 DAA): 10%
Visual Weed Control (%) Obs ([3]; 16 g ae/ha, 20 DAA): 90%
Visual Weed Control (%) Obs ([3]; 16 g ae/ha, 22 DAA): 60%
Visual Weed Control (%) Obs ([3]; 32 g ae/ha, 20 DAA): 90%

COc1c(Cl)ccc(-c2nc(C(=O)O)c(Cl)c(N)c2F)c1F [Compound A Acid, 4-amino-3-chloro-6-(4-chloro-2-fluoro-3-methoxyphenyl)-5-fluoropyridine-2-carboxylic acid]
Visual Weed Control (%) Obs ([1]; 4.38 g ae/ha, 21 DAA): 43%
Visual Weed Control (%) Obs ([1]; 4.38 g ae/ha, 22 DAA): 20%
Visual Weed Control (%) Obs ([1]; 8.75 g ae/ha, 21 DAA): 63%
Visual Weed Control (%) Obs ([2]; 4.38 g ae/ha, 21 DAA): 33%
Visual Weed Control (%) Obs ([2]; 4.38 g ae/ha, 22 DAA): 20%
Visual Weed Control (%) Obs ([2]; 8.75 g ae/ha, 21 DAA): 55%
Visual Weed Control (%) Obs ([3]; 4.38 g ae/ha, 22 DAA): 15%
